Experimental data: ChEMBL document CHEMBL1201862, “PubChem BioAssay data set” (2004)
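Interpolation was linear, between the two tested concentrations surrounding the appropriate level; five concentrations were tested over 48 hours in 96-well plates. GI50 marks 50% less growth.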 The source made the active and inactive calls. Rule as the data show it: active = GI50 up to about 1.1 µM and inactive = higher.

Columns and labels:
Assay in all cases: DTP human tumour cell line panel, 48 h
A549 = tested on: A549
ACHN = tested on: ACHN
HCC 2998 = tested on: HCC 2998
HCT-116 = tested on: HCT-116
IGROV-1 = tested on: IGROV-1
MCF7 = tested on: MCF7
NCI-H226 = tested on: NCI-H226
NCI-H23 = tested on: NCI-H23
NCI-H460 = tested on: NCI-H460
OVCAR-3 = tested on: OVCAR-3
OVCAR-4 = tested on: OVCAR-4
OVCAR-8 = tested on: OVCAR-8
SF-268 = tested on: SF-268
SF-539 = tested on: SF-539
SK-MEL-28 = tested on: SK-MEL-28
SW-620 = tested on: SW-620
TK-10 = tested on: TK-10
UACC-257 = tested on: UACC-257
UACC-62 = tested on: UACC-62
UO-31 = tested on: UO-31

Row | SMILES | GI50 (A549) | GI50 (ACHN) | GI50 (HCC 2998) | GI50 (HCT-116) | GI50 (IGROV-1) | GI50 (MCF7) | GI50 (NCI-H226) | GI50 (NCI-H23) | GI50 (NCI-H460) | GI50 (OVCAR-3) | GI50 (OVCAR-4) | GI50 (OVCAR-8) | GI50 (SF-268) | GI50 (SF-539) | GI50 (SK-MEL-28) | GI50 (SW-620) | GI50 (TK-10) | GI50 (UACC-257) | GI50 (UACC-62) | GI50 (UO-31)
1 | CN1CCCOC(c2ccc([N+](=O)[O-])cc2)O1 (stereo not given) | > 100 µM (inactive) | > 100 µM (inactive) | > 100 µM (inactive) | > 100 µM (inactive) | > 100 µM (inactive) | > 100 µM (inactive) | > 100 µM (inactive) | > 100 µM (inactive) | > 100 µM (inactive) | > 100 µM (inactive) | > 100 µM (inactive) | > 100 µM (inactive) | > 100 µM (inactive) | > 100 µM (inactive) | > 100 µM (inactive) | > 100 µM (inactive) | > 100 µM (inactive) | > 100 µM (inactive) | > 100 µM (inactive) | > 100 µM (inactive)
2 | Cc1nc2cc(/N=N/c3c(C)noc3C)ccc2[nH]1 | 19.1 µM (inactive) | 25.1 µM (inactive) | 54.3 µM (inactive) | 18.3 µM (inactive) | 12.6 µM (inactive) | 18.2 µM (inactive) | > 100 µM (inactive) | 35.3 µM (inactive) | 21.8 µM (inactive) | 18.1 µM (inactive) | 64.7 µM (inactive) | 24.5 µM (inactive) | 26.6 µM (inactive) | 17.6 µM (inactive) | 17.6 µM (inactive) | 24.8 µM (inactive) | 22.9 µM (inactive) | 44.1 µM (inactive) | 27 µM (inactive) | 13.9 µM (inactive)
3 | O=C(O)CCS/C(=C\C(SCCC(=O)O)c1ccc(Cl)cc1)c1ccc(Cl)cc1 (stereo not given) | 57.1 µM (inactive) | 46.3 µM (inactive) | 24.2 µM (inactive) | 21.4 µM (inactive) | 38.8 µM (inactive) | 21.3 µM (inactive) | 69 µM (inactive) | 42.5 µM (inactive) | 50.1 µM (inactive) | 21.6 µM (inactive) | 41.2 µM (inactive) | 53.5 µM (inactive) | 50 µM (inactive) | 37.2 µM (inactive) | 45.1 µM (inactive) | 28.1 µM (inactive) | 80.7 µM (inactive) | > 100 µM (inactive) | 18.4 µM (inactive) | 78 µM (inactive)
4 | NC(CO)C(=O)NCC(=O)O (stereo not given) | > 100 µM (inactive) | > 100 µM (inactive) | > 100 µM (inactive) | > 100 µM (inactive) | > 100 µM (inactive) | > 100 µM (inactive) | > 100 µM (inactive) | > 100 µM (inactive) | > 100 µM (inactive) | > 100 µM (inactive) | > 100 µM (inactive) | > 100 µM (inactive) | > 100 µM (inactive) | > 100 µM (inactive) | > 100 µM (inactive) | > 100 µM (inactive) | > 100 µM (inactive) | > 100 µM (inactive) | > 100 µM (inactive) | > 100 µM (inactive)
5 | CC1C=CN(N(C)C)C2=C1C(=O)c1cnccc1C2=O (stereo not given) | 0.331 µM (active) | 0.251 µM (active) | 0.589 µM (active) | 0.306 µM (active) | 0.244 µM (active) | 0.274 µM (active) | 0.508 µM (active) | 0.261 µM (active) | 0.148 µM (active) | 0.792 µM (active) | 0.662 µM (active) | 0.883 µM (active) | 0.975 µM (active) | 0.293 µM (active) | 0.453 µM (active) | 0.395 µM (active) | 0.513 µM (active) | 0.212 µM (active) | 0.167 µM (active) | 0.167 µM (active)
6 | CN(C)/C=C/c1nnnn1-c1ccc(I)cc1 | > 100 µM (inactive) | 22 µM (inactive) | 39.6 µM (inactive) | 10.5 µM (inactive) | 15.6 µM (inactive) | 12 µM (inactive) | 22.8 µM (inactive) | 24.7 µM (inactive) | 31.1 µM (inactive) | 23.6 µM (inactive) | 20.5 µM (inactive) | 19.5 µM (inactive) | 17.5 µM (inactive) | 19.5 µM (inactive) | 26.7 µM (inactive) | 15.3 µM (inactive) | 30.5 µM (inactive) | 27 µM (inactive) | 12.4 µM (inactive) | 17.6 µM (inactive)
7 | [O-]/[N+](=N/c1ncc(-c2ccccc2)cn1)c1ncc(-c2ccccc2)cn1 | > 100 µM (inactive) | > 100 µM (inactive) | > 100 µM (inactive) | 31.6 µM (inactive) | 29.9 µM (inactive) | 36 µM (inactive) | > 94.8 µM (inactive) | > 100 µM (inactive) | > 100 µM (inactive) | > 83.8 µM (inactive) | 54.6 µM (inactive) | > 96.6 µM (inactive) | > 84.7 µM (inactive) | > 65.2 µM (inactive) | > 61.9 µM (inactive) | > 95.7 µM (inactive) | > 100 µM (inactive) | > 100 µM (inactive) | > 100 µM (inactive) | > 66.1 µM (inactive)
8 | O=S(=O)(O)c1ccc2c(/N=N/c3ccc(Sc4ccc(/N=N/c5c(O)ccc6cc(S(=O)(=O)O)ccc56)cc4)cc3)c(O)ccc2c1 | > 100 µM (inactive) | > 100 µM (inactive) | > 100 µM (inactive) | > 100 µM (inactive) | > 100 µM (inactive) | > 100 µM (inactive) | > 100 µM (inactive) | > 100 µM (inactive) | > 100 µM (inactive) | > 100 µM (inactive) | > 100 µM (inactive) | > 100 µM (inactive) | > 100 µM (inactive) | > 100 µM (inactive) | > 100 µM (inactive) | > 100 µM (inactive) | > 100 µM (inactive) | > 100 µM (inactive) | > 100 µM (inactive) | > 100 µM (inactive)
9 | CC1=C(C#N)c2nc3ccccc3n2C(=O)C1(C)CCO (stereo not given) | > 100 µM (inactive) | > 100 µM (inactive) | > 100 µM (inactive) | > 100 µM (inactive) | > 100 µM (inactive) | > 100 µM (inactive) | > 100 µM (inactive) | > 100 µM (inactive) | > 100 µM (inactive) | > 100 µM (inactive) | > 100 µM (inactive) | > 100 µM (inactive) | > 100 µM (inactive) | > 100 µM (inactive) | > 100 µM (inactive) | > 100 µM (inactive) | > 100 µM (inactive) | > 100 µM (inactive) | > 100 µM (inactive) | > 100 µM (inactive)
10 | CCCCCC(/C=C/[C@@H]1CC(=O)C[C@H]1O[Si](C)(C)C(C)(C)C)OCOCCOC (stereo not given in full) | 9.55 µM (inactive) | 2.96 µM (inactive) | 13.6 µM (inactive) | 2.99 µM (inactive) | 3.24 µM (inactive) | 3.65 µM (inactive) | 5.48 µM (inactive) | 3.56 µM (inactive) | 17.2 µM (inactive) | 3.93 µM (inactive) | 5.56 µM (inactive) | 4.23 µM (inactive) | 2.98 µM (inactive) | 2.32 µM (inactive) | 3.08 µM (inactive) | 2.96 µM (inactive) | 12.9 µM (inactive) | 3.68 µM (inactive) | 2.7 µM (inactive) | 2.42 µM (inactive)
11 | CC[C@@H]1CC[C@@H]2[C@H](CC[C@]3(C)[C@@H](OC(C)=O)CC[C@@H]23)[C@H]1COC(C)=O | 22.1 µM (inactive) | 53.8 µM (inactive) | 13.4 µM (inactive) | 16.5 µM (inactive) | 32.7 µM (inactive) | 31.6 µM (inactive) | 23.1 µM (inactive) | 27.2 µM (inactive) | 19.9 µM (inactive) | 17.4 µM (inactive) | 22.5 µM (inactive) | 23 µM (inactive) | 21.6 µM (inactive) | 24.4 µM (inactive) | 30.8 µM (inactive) | 31.8 µM (inactive) | > 100 µM (inactive) | 29.5 µM (inactive) | 18.1 µM (inactive) | > 100 µM (inactive)
12 | COc1ccc(C(=O)N=C2N(c3ccccc3)C(=N/c3ccccc3)/C(=N\c3ccccc3)N2c2ccccc2)cc1 | 30.3 µM (inactive) | 22.5 µM (inactive) | > 85.7 µM (inactive) | 36.1 µM (inactive) | 54 µM (inactive) | > 100 µM (inactive) | 29.9 µM (inactive) | 39.3 µM (inactive) | 47.1 µM (inactive) | > 100 µM (inactive) | 21.9 µM (inactive) | 20 µM (inactive) | 65.8 µM (inactive) | 35 µM (inactive) | 18.3 µM (inactive) | 99.8 µM (inactive) | 18.5 µM (inactive) | 48.2 µM (inactive) | 37.1 µM (inactive) | > 100 µM (inactive)
13 | Cc1ccccc1CN1CC2=C(CCN(Cc3ccccc3)C2=O)N2CCN=C12 | 4.76 µM (inactive) | 6.61 µM (inactive) | 4.06 µM (inactive) | 4.06 µM (inactive) | > 100 µM (inactive) | 4.86 µM (inactive) | 3.56 µM (inactive) | 4.62 µM (inactive) | 4.24 µM (inactive) | 4.48 µM (inactive) | 3.27 µM (inactive) | 4.76 µM (inactive) | 6.87 µM (inactive) | 52.4 µM (inactive) | 29.2 µM (inactive) | 4.5 µM (inactive) | 7.35 µM (inactive) | 3.5 µM (inactive) | 11.1 µM (inactive) | 6.81 µM (inactive)
14 | Nc1ncnc2c1ncn2C1C=C(CO)C(O)C1O (stereo not given) | 14.9 µM (inactive) | 4.48 µM (inactive) | 4.72 µM (inactive) | 0.0509 µM (active) | 7.74 µM (inactive) | 0.197 µM (active) | 22.4 µM (inactive) | 2.83 µM (inactive) | 0.637 µM (active) | 5.01 µM (inactive) | 6.24 µM (inactive) | 3.75 µM (inactive) | 10.1 µM (inactive) | 4.26 µM (inactive) | 1.23 µM (inactive) | 2.06 µM (inactive) | 6.64 µM (inactive) | 1.35 µM (inactive) | 3.56 µM (inactive) | 0.41 µM (active)
